Source: article PMC10548421, “Anticancer Potential of Diruthenium Complexes with Bridging Hydrocarbyl Ligands from Bioactive Alkynols” (Inorganic Chemistry, 2023)
Like-named read-outs stand apart in the source and are kept apart here.

Key:
[1] = Octanol/water partition coefficient, shake-flask with UV–vis; format: physicochemical; conditions: 21 °C
Protocol: Partition coefficients (Pow), defined by the formula Pow = corg/caq, wherein corg and caq denote the molar concentrations of the specific compound in octanol and aqueous phases, respectively, were obtained using the shake-flask method with UV–vis measurements, following a previously described procedure (Table 3).[98] All the operations were carried out at 21 ± 1 °C. The wavelength corresponding to the maximum absorption of each compound within the range 350–430 nm was employed for quantifying using UV–vis techniques.

[2] = Stability in H2O/CH3OH solution (UV–vis); format: physicochemical; conditions: ca. 5:1 v/v
Protocol: (§1) […] The percentage of remaining complex in the solution was calculated by considering the change in absorbance at the characteristic wavelength. The identical procedure was employed to evaluate stability in MeOH and DMEM (about 1:5 v/v) solutions. DMEM stands for the cell culture medium (containing 1000 mg/L glucose and L-glutamine, excluding sodium bicarbonate and phenol red; reference D2902-Merck).

[3] = Stability in DMEM/CH3OH solution (UV–vis); format: physicochemical; conditions: ca. 5:1 v/v
Protocol: as §1

[4] = test system: A2780 human ovarian carcinoma cell line; test: MTT in vitro cytotoxicity, A2780; format: cell-based
Protocol: (§2) The cytotoxicity assessment was conducted on various human cancer cell lines, including A2780 ovarian carcinoma, A2780R cisplatin-resistant ovarian carcinoma, MCF-7 breast, HOS osteosarcoma, A549 epithelial lung, PANC-1 pancreatic, Caco-2 colorectal, PC-3 prostate adenocarcinoma, and HeLa cervical cell lines. Additionally, the assessment extended to a normal human fetal fibroblast cell line (MRC-5). Cells were obtained from ATCC collection and cultivated according to the producer’s instructions. Stock solutions of the compounds were prepared in DMF immediately before application, and diluted with H2O to achieve the final concentration of 0.1% v/v DMF.[99] The culture media were enriched with 10% fetal calf serum. Subsequently, the cells were exposed to the tested compounds, vehicle (0.1% v/v DMF) and Triton X-100 (1% v/v), during incubation. The conventional MTT assay was carried out following different incubation periods (Tables 5-6). The absorbance was measured at 570 nm by using a spectrophotometer (Infinite M200, Schoeller Instruments, Prague, Czech Republic). The obtained data are presented as the percentage of cell viability with 100% representing negative control treatment (0.1% v/v DMF) and 0% representing the positive control (Triton X-100). The half-maximal inhibitory concentrations (IC50) were determined from dose–response curves using GraphPad Prism 6 software (GraphPad Software, San Diego, USA).

[5] = test system: A2780R cisplatin-resistant human ovarian carcinoma cell line; test: MTT in vitro cytotoxicity, A2780R; format: cell-based; conditions: incubation 24 h, mean ± SD
Protocol: as §2

[6] = test system: MCF-7 breast adenocarcinoma cell line; test: MTT in vitro cytotoxicity, MCF-7; format: cell-based, human; conditions: incubation 24 h, mean ± SD
Protocol: as §2

[7] = test system: HOS human osteosarcoma cell line; test: MTT in vitro cytotoxicity, HOS; format: cell-based; conditions: incubation 24 h, mean ± SD
Protocol: as §2

[8] = test system: A549 human lung adenocarcinoma cell line; test: MTT in vitro cytotoxicity, A549; format: cell-based; conditions: for IC50: incubation 24 h, mean ± SD
Protocol: as §2

[9] = test system: PANC-1 human pancreatic carcinoma cell line; test: MTT in vitro cytotoxicity, PANC-1; format: cell-based; conditions: for IC50: incubation 24 h, mean ± SD
Protocol: as §2

[10] = test system: Caco-2 human colorectal adenocarcinoma cell line; test: MTT in vitro cytotoxicity, Caco-2; format: cell-based; conditions: for IC50: incubation 24 h, mean ± SD
Protocol: as §2, with “Additionally,” for “The cytotoxicity assessment was conducted on various human cancer cell lines, including A2780 ovarian carcinoma, A2780R cisplatin-resistant ovarian carcinoma, MCF-7 breast, HOS osteosarcoma, A549 epithelial lung, PANC-1 pancreatic, Caco-2 colorectal, PC-3 prostate adenocarcinoma, and HeLa cervical cell lines. Additionally,”

[11] = test system: PC-3 human prostate carcinoma cell line; test: MTT in vitro cytotoxicity, PC-3; format: cell-based; conditions: incubation 24 h, mean ± SD
Protocol: as §2

[12] = test system: HeLa human cervical carcinoma cell line; test: MTT in vitro cytotoxicity, HeLa; format: cell-based; conditions: incubation 24 h, mean ± SD
Protocol: as §2

[13] = test system: MRC-5 normal human lung fibroblast cell line; test: MTT in vitro cytotoxicity, MRC-5 (selectivity); format: cell-based; conditions: normal cells, MTT, incubation 24 h, mean ± SD
Protocol: as §2

[14] = Cyclic voltammetry in CH2Cl2/[N^nBu4]PF6; format: physicochemical; conditions: CH2Cl2/[N^nBu4]PF6 0.2 M
Protocol: Cyclic voltammetry measurements were conducted by using a PalmSens4 instrument connected to a computer operating with the PSTrace5 electrochemical software. Prior to use, anhydrous CH2Cl2 (Merck) was stored under argon over 3 Å molecular sieves. Both [N^nBu4]PF6 (electrochemical grade) and FeCp2, obtained from Fluka, were utilized without requiring additional purification. Cyclic voltammetries were carried out under argon by utilizing a 0.2 M solution of [N^nBu4]PF6 in CH2Cl2 as the supporting electrolyte. The working electrode and the counter electrode were comprised of a platinum disk and a platinum gauze, respectively, both enclosed within a glass tube. A leakage-free miniature electrode of Ag/AgCl/KCl (from eDAQ) was employed as a reference. The three-electrode designed cell was subjected to predrying via vacuum heating and then filled with argon gas. The Schlenk-type design of the cell was effective in upholding both anhydrous and anaerobic conditions. Subsequently, a solution of supporting electrolyte, prepared under argon, was introduced into the cell, and the CV of the solvent was acquired. Afterward, the analyte was introduced, and voltammograms were recorded. Under the selected experimental conditions, the one-electron oxidation of ferrocene occurred at a standard potential of E° = +0.45 V relative to Ag/AgCl/KCl.

A2780 cells [15] = test: Apoptosis, Annexin V/propidium iodide flow cytometry; format: cell-based, human; conditions: A2780, cisplatin 15 μM, 24 h, Annexin V/PI
Protocol: (§3) The A2780 ovarian carcinoma cell line was received from Merck (reference 93112519–1VL) and cultured at 37 °C in an environment with 5% CO2. The cultivation was carried out in complete cell culture medium (RPMI-1640 medium, Merck), which was supplemented with 10% fetal bovine serum (FBS, Merck), 1% L-glutamine (Merck) and 1% penicillin–streptomycin–neomycin (PSN, Merck). For the flow cytometry experiments, three independent duplicates were analyzed using a BD FACSVerse flow cytometer (Becton Dickinson, USA). At least 5 × 10^3 events were recorded for each sample. The same procedure was replicated for the experiments described below. Solutions of the complexes were formulated using the stock solutions (Section 5.1).
Apoptosis assay was performed using an Annexin V-FITC/PI commercial kit (V13242, Thermo Fisher Scientific, USA), while caspase 3/7 activation assay was performed with a CellEvent Caspase-3/7 Green Flow Cytometry Assay Kit (C10427, Thermo Fisher Scientific, USA). A2780 cells were seeded in 24-well plates at a density of 5 × 10^4 cells per well; after 24 h, the cells were exposed to 4 μM solution of the selected complex for 24 h. […] The supernatant was collected, cells were washed with PBS (0.1 M, pH 7.4), and trypsin was added (0.25% trypsin-EDTA, GibcoTM). Finally, complete cell culture medium was added to stop the trypsinization, and a final volume of 500 μL was divided into two 250 μL aliquots, following the protocol provided by the manufacturer. Samples were centrifuged, treated with the respective buffers, and then incubated in the dark at room temperature for 10 min (Annexin V-FITC/PI) or at 37 °C for 30 min (CellEventTM Caspase-3/7 Green Detection Reagent).

A2780 cells [16] = test: Autophagy analysis (CYTO-ID); format: cell-based, human; conditions: A2780, complexes 4 μM, cisplatin 15 μM, 24 h
Protocol: as §3
The potential induction of autophagy by 3a and 3b in A2780 cells was studied with the kit CYTO-ID Autophagy Detection 2.0 (from Enzo Life Sciences, USA), following the protocol provided by the manufacturer. […] The supernatant was collected, cells were washed with warm PBS, detached using 0.25% trypsin-EDTA (Gibco) and resuspended in a cell culture medium. Diluted CYTO-ID Green stain solution (according to the protocol) was used to stain the samples. Following incubation for 30 min in a light-protected environment, the samples were washed with PBS (phosphate-buffered saline). Subsequently, a flow cytometry experiment was conducted. A mixture of chloroquine (10 μM) and rapamycin (0.5 μM) was used as positive control.

A2780 cells [17] = test: Mitochondrial membrane potential analysis (MITO-ID); format: cell-based, human; conditions: A2780, complexes 4 μM, cisplatin 15 μM, 24 h
Protocol: as §3
To investigate the effects on mitochondrial membrane potential of A2780 cells, an MITO-ID Membrane potential detection kit (Enzo Life Sciences, USA) was used. Cells were seeded in a 24-well (5 × 10^4 cells/well), and then incubated with 4 μM solution of complexes for 24 h. The supernatant was collected, cells were washed with warm PBS, detached using 0.25% trypsin-EDTA (Gibco) and resuspended in a cell culture medium. Then, samples were stained with diluted MITO-ID MP Detection Reagent (according to the protocol) at RT for 15 min, prior to flow cytometry analysis. A positive control was established by treating the samples with 2 μM carbonyl cyanide 3-chlorophenylhydrazone.

[18] = MTT, incubation 24 h, mean ± SD (Table 5), read-out: IC50 A2780
[19] = time-course experiment (Table 6), 24 h, mean ± SD, read-out: IC50 A2780, incubation time 24 h
[20] = time-course experiment (Table 6), 48 h, mean ± SD, read-out: IC50 A2780, incubation time 48 h
[21] = time-course experiment (Table 6), 72 h, mean ± SD, read-out: IC50 A2780, incubation time 72 h
[22] = vs Ag/AgCl/KCl, peak potential of irreversible process

Compound	Log Pow [1]	residual complex % in H2O/CH3OH ([2]; 2 h)	residual complex % in H2O/CH3OH ([2]; 18 h)	residual complex % in DMEM/CH3OH ([3]; 2 h)	residual complex % in DMEM/CH3OH ([3]; 18 h)	IC50 [4, 18]	IC50 [4, 19]	IC50 [4, 20]	IC50 [4, 21]	IC50 [5]	IC50 [6]	IC50 [7]	IC50 [8]	IC50 [9]	IC50 [10]	IC50 [11]	IC50 [12]	IC50 [13]	residual complex % in H2O/CH3OH ([2]; 30 min)	other results
CC12CCC3C(CCC4=CC(=O)CCC43C)C1CCC2=C=[CH][Ru]1(=[C]=O)([CH]2C=CC=C2)[C](=O)[Ru+]1(=[C]=O)[CH]1C=CC=C1.F[B-](F)(F)F (mixture of isomers) [3c, [Ru2Cp2(CO)3{μ–η^1:η^2-CH=C=(testosteronylidene)}]BF4]	0.89 ± 0.12	94%	73%	89%	67%	6.3 ± 1.3 µM	4.7 ± 1 µM	5.1 ± 0.7 µM	6.8 ± 1.3 µM	11.7 ± 2.4 µM	22 ± 4 µM	17.7 ± 2.8 µM	20.7 ± 1.4 µM	30 ± 0.6 µM	42.8 ± 0.8 µM	19.6 ± 3.7 µM	16.3 ± 1.3 µM	21.5 ± 4 µM	–	–
O=[C]=[Ru]12([CH]3C=CC=C3)[CH]=C(C3(O)CCCC3)[C](=O)[Ru]1([CH]1C=CC=C1)[C]2=O (stereo not drawn) [2a, [Ru2Cp2(CO)2{μ–η^1:η^3-CH=C(1-cyclopentanol)C(=O)}]]	>1.5	91%	23%	–	–	–	–	–	–	–	–	–	–	–	–	–	–	–	97%	Formal electrode potential, oxidation [14, 22]: +0.55 V; Formal electrode potential, reduction [14, 22]: –1.82 V; Formal electrode potential, oxidation ([14]; vs FeCp2 (in parentheses)): +0.11 V; Formal electrode potential, reduction ([14]; vs FeCp2 (in parentheses)): −2.26 V
CC12CCC(=O)C=C1CCC1C2CCC2(C)C1CCC2(O)C1=[CH][Ru]2(=[C]=O)([CH]3C=CC=C3)[C](=O)[Ru]2([CH]2C=CC=C2)[C]1=O (stereo not drawn) [2c, [Ru2Cp2(CO)2{μ–η^1:η^3-CHC(17-testosterone)C(O)}]]	>1.5	81%	14%	–	–	–	–	–	–	–	–	–	–	–	–	–	–	–	99%	–
Cc1ccc(C(C)C)cc1.[Cl][Ru]([Cl])[PH]12CN3CN(CN(C3)C1)C2 [RAPTA-C, [Ru(η^6-p-cymene)Cl2(pta)], reference compound]	–	–	–	–	–	> 50 µM	> 50 µM	> 50 µM	> 50 µM	> 50 µM	> 50 µM	> 50 µM	> 50 µM	> 50 µM	> 50 µM	> 50 µM	> 50 µM	> 50 µM	–	–
N.N.[Cl][Pt][Cl] [cisplatin, reference compound]	–	–	–	–	–	–	–	–	–	40 ± 3.9 µM	28.4 ± 2.7 µM	26.3 ± 3.3 µM	39.2 ± 3.1 µM	> 50 µM	–	> 50 µM	30.7 ± 0.6 µM	> 50 µM	–	cells with apoptotic changes (A2780 cells [15]): ca. 40 % of the cells; autophagy level (in words) (A2780 cells [16]): significantly enhanced; cell count with damaged mitochondrial membranes (in words) (A2780 cells [17]): notable augmentation
[Ru2Cp2(CO)2{μ–η^1:η^3-CH=C(17α-estradiol)C(=O)}] [2b]	>1.5	–	0%	50%	21%	6.2 ± 1.2 µM	5.8 ± 0.4 µM	4.7 ± 0.8 µM	4.2 ± 0.6 µM	7.3 ± 2.4 µM	19 ± 4.5 µM	24 ± 3.8 µM	> 50 µM	> 50 µM	> 50 µM	36 ± 4.1 µM	5.5 ± 0.9 µM	> 50 µM	69%	activity toward A549 cells (in words) ([8]; 24 h): inactive; activity toward PANC-1 cells (in words) ([9]; 24 h): inactive; activity toward Caco-2 cells (in words) ([10]; 24 h): inactive
